Measurements published in patent US20130310371A1 (priority 2012, published 2013).

Test system: rat
Test: animal or person
Format: in vivo
Details: ip

Compound: Cc1cnc(NC(=O)C2=C(O)c3ccccc3S(=O)(=O)N2C)s1 [meloxicam]
- ED50 (Rattus norvegicus, 3 h, read-out: ED50 (95% CI), applied alone): 141 mg/kg
- analgesic effect in words (rat, in vivo): dose-dependent analgesic effect
